Reference: patent publication US10188615B2, “Alkoxy compounds for disease treatment” (Acucela Inc., priority 2007, dated 2019)
Read-outs that look alike come from different tables or passages of the source.

Columns and labels:
[1] = target: isomerase (Mus musculus (Mouse), UniProt Q91ZQ5); assay: In vivo murine isomerase assay (recovery of 11-cis-retinal after photobleaching); set-up: species or system mice; details: for inhibition at 1 mg/kg: read-out: % Inhibition 1 mg/kg, 4 h; for ED50: in vivo inhibition of isomerase, Table 10
Experimental: The capability of compounds described herein to inhibit isomerase was determined by an in vivo murine isomerase assay. Brief exposure of the eye to intense light (“photobleaching” of the visual pigment or simply “bleaching”) is known to photo-isomerize almost all 11-cis-retinal in the retina. The recovery of 11-cis-retinal after bleaching can be used to estimate the activity of isomerase in vivo. Delayed recovery, as represented by lower 11-cis-retinal oxime levels, indicates inhibition of isomerization reaction.
The mice were allowed to recover 2 hours in the dark. The animals were then sacrificed by carbon dioxide inhalation. Retinoids were extracted from the eye and the regeneration of 11-cis-retinal was assessed at various time intervals.
After the mice were sacrificed, the eyes were immediately removed and placed in liquid nitrogen for storage.
The eyes were placed in 500 μL of bis-tris propane buffer (10 mM, pH ˜7.3) and 20 µL of 0.8M hydroxile amine (pH-7.3). The eyes were cut up into small pieces with small iris scissors and then thoroughly homogenized at 30000 rpm with a mechanical homogenizer (Polytron PT 1300 D) in the tube until no visible tissue remained. 500 μL of methanol and 500 μL of heptane were added to each tube. The tubes were attached to a vortexer so that the contents were mixed thoroughly for 15 minutes in room temperature. The organic phase was separated from the aqueous phase by centrifugation for 10 min at 13K rpm, 4° C. 240 μL of the solution from the top layer (organic phase) was removed and transferred to clean 300 μl glass inserts in HPLC vials using glass pipette and the vials were crimped shut tightly.
Loading volume for each sample is 100 μl; detection wavelength is 360 nm. The area under the curve for 11-cis retinal oxime was calculated by Agilent Chemstation software and was recorded manually. Data processing was performed using Prizm software.
Positive control mice (no compound administered) were sacrificed fully dark-adapted and the eye retinoids analyzed. Light (bleached) control mice (no compound administered) were sacrificed and retinoids isolated and analyzed immediately after light treatment.
Mice were sacrificed 2 hours after bleaching, eyes were enucleated, and retinoid content was analyzed by HPLC.
Recovery control mice (vehicle-only treated) were light-treated and left to recover for 2 hours in the dark before sacrifice and analysis. Light control mice (vehicle only treated) were sacrificed for analysis immediately after photo-bleaching.

[2] = target: visual cycle isomerase (Bos taurus (Bovine), UniProt Q28175); assay: Bovine in vitro isomerase inhibition assay (RPE microsome membranes)
Experimental: The capability of compounds disclosed herein to inhibit the activity of a visual cycle isomerase was determined.
All tests were performed in duplicate.

[3] = target: recombinant human RPE65 and LRAT (Homo sapiens (Human), UniProt Q16518); assay: Human in vitro isomerase inhibition assay; type: biochemical; details: Human in vitro Inhibition data; inhibition of 11-cis-retinol formation; HEK293 homogenate, all-trans-retinol about 20 μM, 37° C., one hour; given as ranges
Experimental: The concentration dependent effect of the compounds disclosed herein on the retinol isomerization reaction was also evaluated with a recombinant human enzyme system. […] A homogenate of HEK293 cell clone expressing recombinant human RPE65 and LRAT were the source of the visual enzymes, and exogenous all-trans-retinol (about 20 μM) was used as the substrate. Recombinant human CRALBP (about 80 ug/mL) was added to enhance the formation of 11 cis-retinal. The 200 μL Bis-Tris Phosphate buffer (10 mM, pH 7.2) based reaction mixture also contains 0.5% BSA, and 1 mM NaPPi. In this assay, the reaction was carried out at 37° C. in duplicates for one hour and was terminated by addition of 300 μL methanol. The amount of reaction product, 11-cis-retinol, was measured by HPLC analysis following Heptane extraction of the reaction mixture. […] The ability of the numerous compounds disclosed herein to inhibit isomerization reaction is quantified and the respective IC50 value is determined.

[4] = Bovine in vitro Inhibition data, inhibition of 11-cis retinol formation, bovine RPE microsomes, 20 μM all-trans retinol, 37° C., 30 minutes, given as ranges

Chain of recombinant human RPE65 and LRAT (Q16518 2-533): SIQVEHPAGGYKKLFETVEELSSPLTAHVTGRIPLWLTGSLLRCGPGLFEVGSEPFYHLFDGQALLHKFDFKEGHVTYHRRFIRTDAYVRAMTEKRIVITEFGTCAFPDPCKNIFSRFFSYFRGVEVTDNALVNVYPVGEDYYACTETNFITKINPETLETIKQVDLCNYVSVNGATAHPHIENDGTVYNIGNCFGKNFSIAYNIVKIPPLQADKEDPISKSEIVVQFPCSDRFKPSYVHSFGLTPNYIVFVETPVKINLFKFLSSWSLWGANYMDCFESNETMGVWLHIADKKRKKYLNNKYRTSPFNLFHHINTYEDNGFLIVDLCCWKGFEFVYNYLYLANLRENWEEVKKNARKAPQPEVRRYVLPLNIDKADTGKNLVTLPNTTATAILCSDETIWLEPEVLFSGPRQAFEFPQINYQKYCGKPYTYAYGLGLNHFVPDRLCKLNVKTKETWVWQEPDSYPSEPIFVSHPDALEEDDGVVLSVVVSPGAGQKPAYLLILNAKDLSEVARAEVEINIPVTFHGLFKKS
Chain of isomerase (Q91ZQ5 whole entry): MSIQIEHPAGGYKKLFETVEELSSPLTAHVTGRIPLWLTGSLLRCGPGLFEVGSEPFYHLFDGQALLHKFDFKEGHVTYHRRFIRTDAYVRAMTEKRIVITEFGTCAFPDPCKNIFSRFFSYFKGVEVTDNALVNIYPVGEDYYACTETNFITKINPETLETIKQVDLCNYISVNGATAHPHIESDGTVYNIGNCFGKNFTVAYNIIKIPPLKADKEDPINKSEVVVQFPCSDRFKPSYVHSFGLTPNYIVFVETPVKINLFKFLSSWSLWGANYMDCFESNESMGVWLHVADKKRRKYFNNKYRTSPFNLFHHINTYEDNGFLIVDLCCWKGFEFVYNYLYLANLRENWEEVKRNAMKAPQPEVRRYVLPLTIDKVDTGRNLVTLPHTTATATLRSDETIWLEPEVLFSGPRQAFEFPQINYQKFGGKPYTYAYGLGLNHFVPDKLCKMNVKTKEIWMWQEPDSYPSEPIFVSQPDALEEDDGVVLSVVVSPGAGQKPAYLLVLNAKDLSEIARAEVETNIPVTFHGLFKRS
Chain of visual cycle isomerase (Q28175 2-533): as the sequence (Q16518 2-533) above, with I2S, V135I, I154V, L299I, N320H, G321E, C426G counted along it

Row | inhibition at 1 mg/kg [1] [%] | IC50 [2, 4] [µM] | IC50 [2] [µM] | IC50 [3] [µM] | ED50 [1] [mg/kg] | SMILES
1 | 98 | ≤ 1 | – | – | – | CCCC(O)(CCC)COc1cccc(C(O)CCN)c1 (centres unmarked) [Example 20, 4-((3-(3-Amino-1-hydroxypropyl)phenoxy)methyl)heptan-4-ol]
2 | – | – | 1 to 10 | – | – | NCCOc1cccc(OCc2ccccc2)c1 [Example 8, 2-(3-(Benzyloxy)phenoxy)ethanamine]
3 | 68 | ≤ 1 | – | – | – | NCCCc1cccc(OCC2CCCCC2)c1 [Example 1, 3-(3-(Cyclohexylmethoxy)phenyl)propan-1-amine]
4 | – | ≤ 1 | – | – | – | NCC(O)Cc1cccc(OCC2CCCCC2)c1 (centres unmarked) [Example 6, 1-Amino-3-(3-(cyclohexylmethoxy)phenyl)propan-2-ol]
5 | 96 | ≤ 1 | – | ≤ 0.01 | – | CCCC(CCC)COc1cccc(C(O)CCN)c1 (centres unmarked) [Example 17, 3-Amino-1-(3-(2-propylpentyloxy)phenyl)propan-1-ol]
6 | – | ≤ 1 | – | – | – | NCCCc1cccc(OCC2(O)CCCCCC2)c1 [Example 11, 1-((3-(3-aminopropyl)phenoxy)methyl)cycloheptanol]
7 | 6 | – | – | ≤ 0.01 | – | C[C@H](CN)[C@@H](O)c1cccc(OCC2CCCCC2)c1 [Example 74, (1R,2R)-3-Amino-1-(3-(Cyclohexylmethoxy)Phenyl)-2-Methylpropan-1-Ol]
8 | – | ≤ 1 | – | – | 1 | NCCC(=O)c1cccc(OCC2CCCCC2)c1 [Example 5, 3-Amino-1-(3-(cyclohexylmethoxy)phenyl)propan-1-one]
9 | 41 | ≤ 1 | – | ≤ 0.01 | – | NCCC(O)c1cccc(OCC2(O)CCCCCC2)c1 (centres unmarked) [Example 13, 1-((3-(3-Amino-1-Hydroxypropyl)Phenoxy)Methyl)Cycloheptanol]
10 | 60 | ≤ 1 | – | – | – | NCCC(=O)c1cccc(OCC2CCCCCC2)c1 [Example 16, 3-amino-1-(3-(cycloheptylmethoxy)phenyl)propan-1-one]
11 | 82 | – | – | ≤ 0.01 | – | CCCC(CCC)COc1cccc([C@H](O)[C@H](C)CN)c1 [Example 55, (1R,2R)-3-Amino-2-methyl-1-(3-(2-propylpentyloxy)phenyl)propan-1-ol]
12 | 57 | – | – | ≤ 0.01 | – | CCC(O)(CC)COc1cccc(C(O)CCN)c1 (centres unmarked) [Example 30, 3-((3-(3-Amino-1-hydroxypropyl)phenoxy)methyl)pentan-3-ol]
13 | – | ≤ 1 | – | – | – | NCCCc1cccc(OCC2(O)CCCCC2)c1 [Example 10, 1-((3-(3-Aminopropyl)phenoxy)methyl)cyclohexanol]
14 | 59 | ≤ 1 | – | – | – | NCCC(O)c1cccc(OCC2(O)CCCCC2)c1 (centres unmarked) [Example 12, 1-((3-(3-Amino-1-Hydroxypropyl)Phenoxy)Methyl)Cyclohexanol]
15 | – | – | 1 to 10 | – | – | CC(=O)NCCC(O)c1cccc(OCC2CCCCC2)c1 (centres unmarked) [Example 19, N-(3-(3-(cyclohexylmethoxy)phenyl)-3-hydroxypropyl)acetamide]
16 | – | – | 1 to 10 | – | – | NCCOc1cccc(OCC2(O)CCCCCC2)c1 [Example 18, 1-((3-(2-Aminoethoxy)Phenoxy)Methyl)Cycloheptanol]
17 | 89 | ≤ 1 | – | – | – | NCCCc1cccc(OCC2CCCCCC2)c1 [Example 14, 3-(3-(Cycloheptylmethoxy)phenyl)propan-1-amine]
18 | 91 | ≤ 1 | – | ≤ 0.01 | – | NCCC(O)c1cccc(OCC2CCCCCC2)c1 (centres unmarked) [Example 15, 3-Amino-1-(3-(cycloheptylmethoxy)phenyl)propan-1-ol]
19 | 17 | ≤ 1 | – | – | 4.2 | NCCOc1cccc(OCC2CCCCC2)c1 [Example 7, 2-(3-(Cyclohexylmethoxy)phenoxy)ethanamine]
20 | 6 | ≤ 1 | – | – | – | NCCOc1cccc(OCC2CCCCCC2)c1 [Example 9, 2-(3-(Cycloheptylmethoxy)phenoxy)ethanamine]
21 | 1 | ≤ 1 | – | – | – | CCCC(CCC)COc1cccc(CCCN)c1 [Example 2, 3-(3-(2-Propylpentyloxy)phenyl)propan-1-amine]
22 | 47 | – | – | ≤ 0.01 | – | NCCC(O)c1cccc(OCC2CC3CCC2C3)c1 (centres unmarked) [Example 48, 3-Amino-1-(3-(bicyclo[2.2.1]heptan-2-ylmethoxy)phenyl)propan-1-ol]

Row | SMILES | inhibition at 1 mg/kg [1] [%] | IC50 [2, 4] [µM] | IC50 [2] [µM] | IC50 [3] [µM] | ED50 [1] [mg/kg]
23 | CCC(CC)COc1cccc(CCCN)c1 [Example 3, 3-(3-(2-Ethylbutoxy)phenyl)propan-1-amine] | 12 | ≤ 1 | – | – | –
24 | CCC(CC)COc1cccc(C(O)CCN)c1 (centres unmarked) [Example 45, 3-Amino-1-(3-(2-ethylbutoxy)phenyl)propan-1-ol] | 98 | – | – | ≤ 0.01 | –
25 | COCCCCOc1cccc(C(O)CCN)c1 (centres unmarked) [Example 88, 3-Amino-1-(3-(4-methoxybutoxy)phenyl)propan-1-ol] | 78 | – | – | ≤ 0.01 | –
26 | CCC(CC)COc1cccc([C@H](O)[C@H](C)CN)c1 [Example 72, (1R,2R)-3-Amino-1-(3-(2-ethylbutoxy)phenyl)-2-methylpropan-1-ol] | 13 | – | – | ≤ 0.01 | –
